Measured values published in patent US9725432B2, “Pyrimidine derivatives for the treatment of bacterial diseases” (JANSSEN R&D IRELAND, priority 2012, dated 2017).
Values after ≈ are worked out from the molar mass of the structure shown.

Experiments:
Staphylococcus aureus = assay: Antibacterial susceptibility testing: IC90 determination (broth microdilution, resazurin fluorescence); assay type: cell-based; settings: 90% inhibitory concentration for bacterial growth, Mueller Hinton broth, 35° C., 16-20 hours, strain not given
Description: Preparation of Bacterial Suspensions for Susceptibility Testing
The following bacteria were used: Staphylococcus aureus ATCC 29213, methicillin-resistant Staphylococcus aureus (MRSA) ATCC 700788 and Escherichia coli ATCC 35218. The bacteria used in this study were grown overnight in flasks containing 100 ml Mueller-Hinton broth (Difco cat. nr. 0757-17) in sterile de-ionized water, with shaking, at 37° C. Stocks were store at −70° C. until use.
Bacteria were incubated on a tryptic soy agar plate containing 5% sheep blood (Becton Dickinson cat. nr. 254053) for 18-24 hours at 35° C. in aerobic conditions (first passage). For the second passage, fresh Mueller-Hinton broth is inoculated with 5-10 colonies and grown overnight at 35° C. until turbidity (reaching log-phase) in aerobic conditions is reached. The bacterial suspension is then adjusted to 0.5 McFarland density and further diluted 1:100 in Mueller Hinton broth medium. This is used as inoculum.
Antibacterial Susceptibility Testing: IC90 Determination
MIC assays were performed by the broth microdilution method in a 96-well format (flat-bottom microtitre plates) with a final volume of 0.1 ml Mueller Hinton broth containing two-fold serial dilutions of compounds and inoculated with 5×10^5 CFU/ml of bacteria (standard inoculum size according to CLSI guidelines). Inhibitors are typically varied over the range of 63 to 0.49 μM. The final DMSO concentration in the assay was 1.25% (maximum tolerable DMSO concentration=6%). In the assays where the effect of human serum on the activity of the compounds against S. aureus was tested, human serum was added at a final concentration of 10%. The plates were incubated at 35° C. for 16-20 hours. At the end of incubation the bacterial growth was quantified fluorometrically. For this, resazurin was added to all wells and the plates were re-incubated. The incubation time is dependent on the type of bacteria. A change in color from blue to pink indicated the growth of bacteria. The fluorescence was read in computer-controlled fluorometer (Fluoroskan Ascent FL, Labsystems) at an excitation wavelength 540 nm and an emission wavelength of 590 nm. The % growth inhibition achieved by the compounds was calculated according to standard methods. The IC90 (expressed in μg/ml) was defined as the 90% inhibitory concentration for bacterial growth. A panel of reference compounds were simultaneously tested for QC approval.

Cytotoxicity MTT assay = assay type: cell-based; settings: human, HelaM cells, concentration that causes 50% reduction in cell viability
Description: Cytotoxicity of the compounds was evaluated using the MTT assay. Human HelaM cells grown in 96-well plates were exposed to serial dilutions of the tested compounds (final volume of 0.2 ml) and incubated for 72 hours at 37° C. and 5% CO2 Inhibitors are typically varied over the range of 25 to 0.8 μM. The final DMSO concentration in the assay is 0.5%. MTT (3-(4,5-Dimethylthiazol-2-yl)-2,5-diphenyltetrazolium bromide, a tetrazole) was added and reduced to purple formazan only in living cells. Solubilization of the formazan crystals was achieved by adding 100 μl 2-propanol. Cell viability was determined by measuring the absorbance of the reduced formazan, giving a purple color, at 540 nm and 690 nm. The absorbance measured at 690 nm was automatically subtracted from the absorbance at 540 nm, to eliminate the effects of non-specific absorption. The percent cytotoxicity achieved by the compounds was calculated according to standard methods. Cytotoxicity is reported as CC50, the concentration that causes a 50% reduction in cell viability.

Row | Compound | IC90 (Staphylococcus aureus) | CC50 at 72 h (Cytotoxicity MTT assay) | melting point
1 | COc1cccc(-c2cnc(-c3ccncc3)nc2C2CCN(Cc3ccc(F)cc3F)CC2)c1 [Compound 32] | 3.27 µg/mL (≈ 6.92 µM) | 5.5 µg/mL (≈ 11.6 µM) | 138 °C
2 | CN(C)c1ncc(-c2ccccc2F)c(C2CCN(CC(C)(C)C)CC2)n1 [Compound 51] | 13.4 µg/mL (≈ 36.3 µM) | 7.8 µg/mL (≈ 21.1 µM) | 
3 | Oc1ccccc1CN1CCC(c2nc(-c3cccnc3)ncc2-c2ccccc2)CC1 [Compound 7] | 14.3 µg/mL (≈ 33.9 µM) |  | 
4 | COc1cccc(-c2cnc(-c3ccncc3)nc2C2CCN(Cc3ccccc3C(F)(F)F)CC2)c1 [Compound 46] | 4.1 µg/mL (≈ 8.13 µM) | 4.2 µg/mL (≈ 8.32 µM) | 144 °C
5 | COc1cccc(-c2cnc(-c3ccncc3)nc2C2CCN(Cc3c(F)cccc3F)CC2)c1 [Compound 47] | 1.74 µg/mL (≈ 3.68 µM) | 2.1 µg/mL (≈ 4.44 µM) | 184 °C
6 | COc1cccc(-c2cnc(-c3ccncc3)nc2C2CCN(Cc3ccc(F)cc3)CC2)c1 [Compound 29] | 3.45 µg/mL (≈ 7.59 µM) | 8.5 µg/mL (≈ 18.7 µM) | 152 °C
7 | CC(C)(C)CN1CCC(c2nc(-c3ccc(F)cc3)ncc2-c2cccc(C#N)c2)CC1 [Compound 66] | < 0.21 µg/mL | 8.8 µg/mL (≈ 20.5 µM) | 154 to 158 °C
8 | COc1cccc(-c2cnc(-c3ccncc3)nc2C2CCN(Cc3ccccc3O)CC2)c1 [Compound 10] | 1.68 µg/mL (≈ 3.71 µM) | 9.9 µg/mL (≈ 21.9 µM) | 142 to 146 °C
9 | CC(C)(C)CN1CCCC(c2nc(-c3cccnc3)ncc2-c2cccc(C#N)c2)C1 (stereo not shown) [Compound 62] | > 25.9 µg/mL | > 10.3 µg/mL | 57 to 113 °C
10 | CC(C)(C)CN1CCC(c2nc(-c3ccncc3)ncc2-c2cccc(Cl)c2)CC1 [Compound 39] | 0.76 µg/mL (≈ 1.81 µM) | 7.3 µg/mL (≈ 17.3 µM) | 119 to 121 °C
11 | COc1cccc(-c2cnc(-c3ccncc3)nc2C2CCN(C3CC3)CC2)c1 [Compound 12] | 5.78 µg/mL (≈ 15 µM) | > 9.7 µg/mL | 153 to 156 °C
12 | COc1cccc(-c2cnc(-c3ccncc3)nc2C2CCN(Cc3ccc(F)c(F)c3)CC2)c1 [Compound 43] | 2.24 µg/mL (≈ 4.74 µM) | 6.2 µg/mL (≈ 13.1 µM) | 158 °C
13 | COc1cccc(-c2cnc(-c3ccncc3)nc2C2CCN(CC(C)(F)F)CC2)c1 [Compound 70] | 0.64 µg/mL (≈ 1.51 µM) | 6.7 µg/mL (≈ 15.8 µM) | 
14 | CC1(CN2CCC(c3nc(-c4ccncc4)ncc3-c3cccc(C#N)c3)CC2)COC1 [Compound 72] | 25.9 µg/mL (≈ 61 µM) |  | 
15 | CN(C)c1ncc(-c2cccc(Cl)c2)c(C2CCN(CC(C)(C)C)CC2)n1 [Compound 52] | 1.28 µg/mL (≈ 3.31 µM) | 6.7 µg/mL (≈ 17.3 µM) | 
16 | COc1cccc(-c2cnc(-c3ccncc3)nc2C2CCN(Cc3cccc(F)c3)CC2)c1 [Compound 3] | 5.59 µg/mL (≈ 12.3 µM) | > 4.5 µg/mL | 111 to 114 °C
17 | CC(C)(C)CN1CCC(c2nc(-c3ccncc3)ncc2-c2cccc(C(F)(F)F)c2)CC1 [Compound 40] | 0.52 µg/mL (≈ 1.14 µM) | 7 µg/mL (≈ 15.4 µM) | 112 to 114 °C
18 | COc1cccc(-c2cnc(-c3ccncc3)nc2C2CCN(CC(C)(C)C#N)CC2)c1 [Compound 57] | 0.39 µg/mL (≈ 0.912 µM) | 7.3 µg/mL (≈ 17.1 µM) | 117 °C
19 | COc1cccc(-c2cnc(-c3ccncc3)nc2C2CCN(Cc3ccc(Cl)cc3O)CC2)c1 [Compound 9] | 0.97 µg/mL (≈ 1.99 µM) | 5.9 µg/mL (≈ 12.1 µM) | 119 to 123 °C
20 | CN(C)c1cccc(-c2cnc(-c3ccncc3)nc2C2CCN(CC(C)(C)C)CC2)c1 [Compound 37] | 3.04 µg/mL (≈ 7.08 µM) | 9.2 µg/mL (≈ 21.4 µM) | 140 to 142 °C
21 | CC(C)(C)CN1CCC(c2nc(C(F)(F)F)ncc2-c2cccc(C#N)c2)CC1 [Compound 64] | 1.46 µg/mL (≈ 3.63 µM) | > 10.1 µg/mL | 114 to 116 °C
22 | CC(C)(C)CN1CCCC(c2nc(-c3ccncc3)ncc2-c2cccc(C#N)c2)C1 (stereo not shown) [Compound 61] | > 25.9 µg/mL | > 10.3 µg/mL | 
